Results taken from US20100204249A1, “SECRETORY PHOSPHOLIPASE A2 (SPLA2) INHIBITOR AND NIACIN DRUG COMPOSITIONS AND METHODS FOR TREATING CARDIOVASCULAR DISEASE AND DYSLIPIDEMIA” (priority 2009, published 2010).

Assays:
sPLA2 = conditions: cited from earlier work
[1] = tested on: human subjects with stable CAD; assay: Change in HDL levels at eight weeks, A-002 and/or niacin drugs, subjects with stable CAD; conditions: for Baseline Mean HDL: before trial period; for Baseline Mean HDL / Week 8 Mean HDL: stable CAD; for Difference versus placebo (HDL % change) / % change versus baseline (HDL) / Week 8 Mean HDL: week 8; for % change versus baseline (HDL): ANCOVA subject-specific percent change from baseline; for Change from baseline (mean HDL): week 8 versus baseline
Excerpt: (§1) 46 subjects from the above once-a-day and twice-a-day A-002 studies were identified as receiving niacin drugs before and during the trial period. 45 of these 46 subjects were also receiving one or more statins before and during the trial period. The niacin drugs included niacin, nicotinic acid, acipimox, ERN (Niaspan®), Niaspan® in combination with lovastatin (Advicor®), and/or Niaspan® in combination with simvastatin (Simcor®). Of the 46 niacin subjects, twelve were concomitantly administered placebo rather than A-002 (i.e., niacin drug only), four were administered 100 mg of A-002 daily, five were administered 200 mg of A-002 daily, five were administered 250 mg of A-002 daily, thirteen were administered 500 mg of A-002 daily, and seven were administered 1000 mg of A-002 daily.
(§2) The change from baseline HDL and TG levels at eight weeks was determined for each of the subjects receiving niacin drugs, and the percentage increase or decrease in these levels was determined using an analysis of covariance (ANCOVA) model that calculated subject-specific percent change from baseline.

[2] = tested on: human subjects with stable CAD; conditions: oral, once or twice a day, total daily 100-1000 mg, all dosages tested; 361 subjects; cited from earlier work
[3] = tested on: human subjects with stable CAD; assay: Change in TG levels at eight weeks, A-002 and/or niacin drugs, subjects with stable CAD; conditions: for Baseline Mean TG: before trial period; for Baseline Mean TG / Week 8 Mean TG: stable CAD; for Difference versus placebo (TG % change) / % change versus baseline (TG) / Week 8 Mean TG: week 8; for % change versus baseline (TG): ANCOVA subject-specific percent change from baseline; for Change from baseline (mean TG): week 8 versus baseline
Excerpt: as §1, §2

[4] = cited from earlier work
[5] = eight weeks, magnitude of decrease

| Structure (SMILES) | type of sPLA2 inhibition (sPLA2) | Baseline Mean HDL [1] [mg/dL] | decrease in HDL versus baseline [1, 5] [%] | Difference versus placebo (HDL % change) [1] | % change versus baseline (HDL) [1] [%] | Week 8 Mean HDL [1] [mg/dL] | Change from baseline (mean HDL) [1] [mg/dL] | serum LDL, LDL particle, small LDL particle, oxidized LDL, total cholesterol, ApoB, TG, sPLA2, CRP, and IL-6 levels [2] | Baseline Mean TG [3] [mg/dL] | Difference versus placebo (TG % change) [3] | % change versus baseline (TG) [3] | Week 8 Mean TG [3] [mg/dL] | Change from baseline (mean TG) [3] | terminal half-life (t1/2) ([4]; in vivo) | absorption and hydrolysis to the active A-001 molecule ([4]; prodrug) | decrease in HDL versus placebo [1, 5] [%] | increase in TG versus placebo ([3]; eight weeks, magnitude of increase) [%] |
| --- | --- | --- | --- | --- | --- | --- | --- | --- | --- | --- | --- | --- | --- | --- | --- | --- | --- |
| CCc1c(C(=O)C(N)=O)c2c(OCC(=O)O)cccc2n1Cc1ccccc1 [A-001] | competitive inhibitor | – | – | – | – | – | – | – | – | – | – | – | – | – | – | – | – |
| CCc1c(C(=O)C(N)=O)c2c(OCC(=O)OC)cccc2n1Cc1ccccc1 [A-002, [[3-(2-Amino-1,2-dioxoethyl)-2-ethyl-1-(phenylmethyl)-1H-indol-4-yl]oxy]acetic acid methyl ester] | – | 47.80 | 2.0 | +0.3% | −2.0 | 46.28 | -1.52 | decrease | 165.83 | −2.6% | −3.7% | 159.04 | -6.79 mg/dL | approximately ten | rapidly absorbed and hydrolyzed | – | – |
| O=C(O)c1cccnc1 [Niacin, pyridine-3-carboxylic acid] | – | 50.67 | 6.2 | −3.9% | −6.2 | 46.75 | -3.92 | – | 129.25 | +3.4% | +9.7% | 133.42 | +4.17 mg/dl | – | – | 3.9 | 3.4 |
